Experimental findings from patent US12258328B2, “6-membered heteroaryl-containing aminopyridine compounds as EGFR inhibitors” (YUHAN CORPORATION, priority 2021, dated 2025) are described below.

Assay [1] addresses EGFR del19/T790M/C797S (Homo sapiens, UniProt P00533, C797S/DEL746-750/T790M). Put plainly: Biochemical EGFR kinase assay (Lance Ultra TR-FRET), triple mutant del19/T790M/C797S. In short, it runs like this: (§1)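 Kinase activity is measured by TR-FRET phosphopeptide detection. Compounds span 0.003 μM to 10 μM; the 1 h reaction at room temperature is quenched with EDTA, then labelled antibody (2 nM) is incubated 60 min before reading.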

The target of assay [2] is EGFR L858R/T790M/C797S (Homo sapiens, UniProt P00533, C797S/L858R/T790M). Put plainly: Biochemical EGFR kinase assay (Lance Ultra TR-FRET), triple mutant L858R/T790M/C797S. Put shortly: as §1
Sequence of EGFR L858R/T790M/C797S (P00533 25-1210 T790M/C797S/L858R): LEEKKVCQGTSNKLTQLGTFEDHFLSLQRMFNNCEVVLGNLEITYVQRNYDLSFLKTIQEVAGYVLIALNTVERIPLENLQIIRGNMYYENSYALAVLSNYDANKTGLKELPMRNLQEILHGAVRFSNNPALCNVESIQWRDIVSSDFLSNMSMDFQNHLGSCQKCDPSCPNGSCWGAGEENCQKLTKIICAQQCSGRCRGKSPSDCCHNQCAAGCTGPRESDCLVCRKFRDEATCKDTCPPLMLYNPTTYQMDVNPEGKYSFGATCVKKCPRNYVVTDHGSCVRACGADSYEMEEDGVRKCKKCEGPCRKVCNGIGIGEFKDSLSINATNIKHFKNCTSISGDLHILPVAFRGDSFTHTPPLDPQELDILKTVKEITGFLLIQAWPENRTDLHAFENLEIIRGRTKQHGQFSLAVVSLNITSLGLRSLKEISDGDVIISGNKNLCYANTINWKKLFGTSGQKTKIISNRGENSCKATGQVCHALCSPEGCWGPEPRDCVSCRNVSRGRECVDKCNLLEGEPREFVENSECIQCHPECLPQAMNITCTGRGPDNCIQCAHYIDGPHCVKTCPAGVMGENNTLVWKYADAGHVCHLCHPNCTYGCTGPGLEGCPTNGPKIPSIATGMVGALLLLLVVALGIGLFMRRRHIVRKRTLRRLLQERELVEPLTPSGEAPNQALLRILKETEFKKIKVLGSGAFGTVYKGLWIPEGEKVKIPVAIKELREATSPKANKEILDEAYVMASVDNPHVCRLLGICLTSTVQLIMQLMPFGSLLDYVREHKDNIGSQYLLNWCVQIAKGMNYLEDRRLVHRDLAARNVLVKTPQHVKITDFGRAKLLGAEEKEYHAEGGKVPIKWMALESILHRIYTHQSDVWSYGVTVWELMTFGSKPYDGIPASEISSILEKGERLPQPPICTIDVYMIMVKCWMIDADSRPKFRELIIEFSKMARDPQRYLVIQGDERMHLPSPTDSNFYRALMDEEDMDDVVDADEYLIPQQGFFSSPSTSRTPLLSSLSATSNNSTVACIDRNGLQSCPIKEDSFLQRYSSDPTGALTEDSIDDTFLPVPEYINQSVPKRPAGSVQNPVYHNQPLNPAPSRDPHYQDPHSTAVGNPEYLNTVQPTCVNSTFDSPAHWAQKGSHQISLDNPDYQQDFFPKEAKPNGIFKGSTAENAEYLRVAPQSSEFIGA
(In general: Time-resolved FRET reads energy transfer from a long-lived donor to a nearby acceptor.)

The target in assay [3] is EGFR del19/C797S (Homo sapiens, UniProt P00533, C797S/DEL746-750). Put plainly: Biochemical EGFR kinase assay (Lance Ultra TR-FRET), double mutant del19/C797S. In short, it runs like this: as §1
Sequence of EGFR del19/C797S (P00533 with tags, fused parts or gaps DEL746-750/C797S): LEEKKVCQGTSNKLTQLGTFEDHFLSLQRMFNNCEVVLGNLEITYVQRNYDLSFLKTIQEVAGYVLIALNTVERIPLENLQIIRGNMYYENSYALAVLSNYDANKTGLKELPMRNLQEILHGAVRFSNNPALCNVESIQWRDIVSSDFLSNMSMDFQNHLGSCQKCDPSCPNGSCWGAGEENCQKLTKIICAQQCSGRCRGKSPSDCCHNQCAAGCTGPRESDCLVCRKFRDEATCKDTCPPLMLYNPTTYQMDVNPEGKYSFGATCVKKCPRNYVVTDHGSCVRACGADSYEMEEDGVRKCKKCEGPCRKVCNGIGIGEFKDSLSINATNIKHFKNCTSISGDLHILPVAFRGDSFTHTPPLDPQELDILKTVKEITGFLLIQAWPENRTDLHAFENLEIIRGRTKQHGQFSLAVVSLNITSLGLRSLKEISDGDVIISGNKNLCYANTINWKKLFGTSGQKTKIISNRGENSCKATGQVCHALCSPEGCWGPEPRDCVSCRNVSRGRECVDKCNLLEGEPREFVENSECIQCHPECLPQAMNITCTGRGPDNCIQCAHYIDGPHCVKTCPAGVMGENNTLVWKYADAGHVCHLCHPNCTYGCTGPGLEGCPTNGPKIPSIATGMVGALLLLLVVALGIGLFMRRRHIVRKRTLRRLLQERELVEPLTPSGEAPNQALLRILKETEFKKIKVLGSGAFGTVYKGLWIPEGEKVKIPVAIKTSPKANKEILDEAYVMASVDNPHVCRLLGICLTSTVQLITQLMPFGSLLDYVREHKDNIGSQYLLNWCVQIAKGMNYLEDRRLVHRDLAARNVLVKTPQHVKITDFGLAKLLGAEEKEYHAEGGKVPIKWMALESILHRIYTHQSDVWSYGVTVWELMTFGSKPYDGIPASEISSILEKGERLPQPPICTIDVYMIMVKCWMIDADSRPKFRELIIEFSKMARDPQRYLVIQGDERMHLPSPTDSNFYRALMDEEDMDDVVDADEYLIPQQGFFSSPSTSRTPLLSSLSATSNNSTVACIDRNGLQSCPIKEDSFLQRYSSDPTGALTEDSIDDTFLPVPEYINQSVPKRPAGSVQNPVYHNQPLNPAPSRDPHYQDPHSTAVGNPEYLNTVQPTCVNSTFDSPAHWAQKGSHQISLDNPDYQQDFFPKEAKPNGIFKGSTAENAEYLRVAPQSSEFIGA
Assay [4] deals with EGFR L858R/C797S (Homo sapiens, UniProt P00533, C797S/L858R). Put plainly: Biochemical EGFR kinase assay (Lance Ultra TR-FRET), double mutant L858R/C797S. Put shortly: as §1
Assay [5] addresses EGFR wildtype (Homo sapiens, UniProt P00533). Put plainly: Biochemical EGFR kinase assay (Lance Ultra TR-FRET), wildtype. In short, it runs like this: as §1
[6] abbreviates: ATP at Km, read-out: IC50 del19/T790M/C797S, Km ATP.
The mark [7] stands for this setting: IC50 del19/T790M/C797S, 100 μM ATP.
[8] abbreviates: ATP at Km, read-out: IC50 L858R/T790M/C797S, Km ATP.
Setting [9] is: IC50 L858R/T790M/C797S, 100 μM ATP.
Where [10] appears, read: ATP at Km, read-out: IC50 del19/C797S, Km ATP.
The mark [11] stands for this setting: ATP at Km, read-out: IC50 L858R/C797S, Km ATP.
Where [12] appears, read: ATP at Km, read-out: IC50 WT, Km ATP.

Where two headings read alike, the source gives them in different places.

Sequence of EGFR wildtype (P00533 25-1210): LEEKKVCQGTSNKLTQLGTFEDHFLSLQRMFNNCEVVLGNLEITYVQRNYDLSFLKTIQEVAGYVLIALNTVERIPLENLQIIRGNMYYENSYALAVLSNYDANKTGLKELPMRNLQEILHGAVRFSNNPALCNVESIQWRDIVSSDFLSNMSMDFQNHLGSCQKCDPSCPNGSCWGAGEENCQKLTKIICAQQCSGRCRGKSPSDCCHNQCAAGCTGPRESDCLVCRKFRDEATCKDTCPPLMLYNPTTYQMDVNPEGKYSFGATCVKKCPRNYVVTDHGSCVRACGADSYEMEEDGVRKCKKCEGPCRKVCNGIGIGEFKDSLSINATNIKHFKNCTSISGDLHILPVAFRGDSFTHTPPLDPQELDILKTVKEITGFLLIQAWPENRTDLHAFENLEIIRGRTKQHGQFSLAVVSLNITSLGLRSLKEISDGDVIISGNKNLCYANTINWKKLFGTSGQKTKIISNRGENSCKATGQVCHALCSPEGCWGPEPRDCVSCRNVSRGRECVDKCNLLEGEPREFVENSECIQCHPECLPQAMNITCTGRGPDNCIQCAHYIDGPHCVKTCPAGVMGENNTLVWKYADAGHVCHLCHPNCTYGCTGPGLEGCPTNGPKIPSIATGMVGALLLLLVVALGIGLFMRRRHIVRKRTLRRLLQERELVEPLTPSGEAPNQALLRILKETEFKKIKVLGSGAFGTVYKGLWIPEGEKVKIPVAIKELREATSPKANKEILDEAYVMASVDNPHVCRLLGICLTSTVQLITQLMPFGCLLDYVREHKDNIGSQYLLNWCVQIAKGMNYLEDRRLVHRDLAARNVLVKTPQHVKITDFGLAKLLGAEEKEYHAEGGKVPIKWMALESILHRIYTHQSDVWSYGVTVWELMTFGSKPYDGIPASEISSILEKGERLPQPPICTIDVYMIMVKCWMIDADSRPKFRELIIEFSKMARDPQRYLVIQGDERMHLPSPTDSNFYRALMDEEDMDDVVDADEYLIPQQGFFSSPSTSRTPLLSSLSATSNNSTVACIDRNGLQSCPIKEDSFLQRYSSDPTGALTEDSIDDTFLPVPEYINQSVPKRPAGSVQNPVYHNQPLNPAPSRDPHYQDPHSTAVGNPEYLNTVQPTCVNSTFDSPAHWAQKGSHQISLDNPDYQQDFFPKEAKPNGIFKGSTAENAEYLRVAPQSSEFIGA
Sequence of EGFR del19/T790M/C797S (P00533 with tags, fused parts or gaps DEL746-750/T790M/C797S): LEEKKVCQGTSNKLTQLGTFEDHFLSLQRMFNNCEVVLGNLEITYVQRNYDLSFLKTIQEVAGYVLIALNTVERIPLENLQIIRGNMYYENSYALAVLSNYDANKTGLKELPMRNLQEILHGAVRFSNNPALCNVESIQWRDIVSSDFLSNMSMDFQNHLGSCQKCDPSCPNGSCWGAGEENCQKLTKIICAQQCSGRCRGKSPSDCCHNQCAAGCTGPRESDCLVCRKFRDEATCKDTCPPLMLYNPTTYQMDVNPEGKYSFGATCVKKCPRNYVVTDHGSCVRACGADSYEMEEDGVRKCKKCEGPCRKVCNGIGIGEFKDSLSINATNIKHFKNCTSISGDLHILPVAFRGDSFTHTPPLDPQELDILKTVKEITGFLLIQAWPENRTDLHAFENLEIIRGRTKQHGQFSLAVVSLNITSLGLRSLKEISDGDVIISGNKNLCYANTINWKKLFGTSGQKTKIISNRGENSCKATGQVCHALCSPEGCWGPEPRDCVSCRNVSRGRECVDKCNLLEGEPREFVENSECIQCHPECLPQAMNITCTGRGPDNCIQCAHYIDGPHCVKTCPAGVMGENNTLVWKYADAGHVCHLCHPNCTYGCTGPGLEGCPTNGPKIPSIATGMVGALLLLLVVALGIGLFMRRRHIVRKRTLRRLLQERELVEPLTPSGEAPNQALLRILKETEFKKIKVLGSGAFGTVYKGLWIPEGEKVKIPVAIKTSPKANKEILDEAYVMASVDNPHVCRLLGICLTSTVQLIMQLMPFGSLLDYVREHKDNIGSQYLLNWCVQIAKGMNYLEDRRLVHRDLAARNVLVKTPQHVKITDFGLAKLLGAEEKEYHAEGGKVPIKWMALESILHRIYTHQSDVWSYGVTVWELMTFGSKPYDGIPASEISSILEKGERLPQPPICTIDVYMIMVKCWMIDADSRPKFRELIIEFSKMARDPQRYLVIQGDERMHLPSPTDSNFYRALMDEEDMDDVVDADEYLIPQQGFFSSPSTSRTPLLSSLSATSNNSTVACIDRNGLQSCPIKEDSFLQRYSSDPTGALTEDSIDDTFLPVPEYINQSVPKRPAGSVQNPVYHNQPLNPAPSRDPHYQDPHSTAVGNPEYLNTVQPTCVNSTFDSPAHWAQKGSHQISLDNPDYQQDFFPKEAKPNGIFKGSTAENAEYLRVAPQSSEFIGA

For the molecule `CC(=O)c1cccc(-c2cnc(Nc3ccnc(-c4cnn(S(=O)(=O)C5CC5)c4)n3)cc2N[C@H]2CC[C@@](C)(O)CC2)n1` [Example 18, 1-(6′-((2-(1-(Cyclopropylsulfonyl)-1H-pyrazol-4-yl)pyrimidin-4-yl)amino)-4′-(((1s,4s)-4-hydroxy-4-methylcyclohexyl)amino)-[2,3′-bipyridin]-6-yl)ethan-1-one], the IC50 in assay [1] (IC50 del19/T790M/C797S (nM) 100 μM ATP, 100 μM ATP) is 0.7 nM; in assay [2] (IC50 L858R/T790M/C797S (nM) 100 μM ATP, 100 μM ATP), 3.1 nM; in assay [3] (IC50 del19/C797S (nM) 100 μM ATP, 100 μM ATP), 8.7 nM; in assay [4] (IC50 L858R/C797S (nM) 100 μM ATP, 100 μM ATP), 113 nM; in assay [5] (IC50 WT (nM) 100 μM ATP, 100 μM ATP) it was over 10000 nM.
`O=S(=O)(C1CC1)n1cc(-c2nccc(Nc3cc(N[C@H]4CC[C@@H](CO)CC4)c(-c4cc(OCCN5CCOCC5)ccn4)cn3)n2)cn1` [Example 212, ((1s,4s)-4-((6′-((2-(1-(Cyclopropylsulfonyl)-1H-pyrazol-4-yl)pyrimidin-4-yl)amino)-4-(2-morpholinoethoxy)-[2,3′-bipyridin]-4′-yl)amino)cyclohexyl)methanol]: the IC50 came to 0.5 nM in assay [1] (setting [6]); 1 nM in assay [1] (setting [7]); 0.4 nM in assay [2] (setting [8]); 0.6 nM in assay [2] (setting [9]); 1.2 nM in assay [3] (setting [10]); 2.7 nM in assay [3] (IC50 del19/C797S, 100 μM ATP). Further, the IC50 in assay [4] (setting [11]) is 0.5 nM; in assay [4] (IC50 L858R/C797S, 100 μM ATP), 18.7 nM; in assay [5] (setting [12]), 3.4 nM; in assay [5] (IC50 WT, 100 μM ATP), 7860 nM.
For the molecule `O=S(=O)(C1CC1)n1cc(-c2nccc(Nc3cc(N[C@H]4CCC[C@H](CO)C4)c(-c4ccc(C(O)C(F)(F)F)cn4)cn3)n2)cn1` (stereo partly drawn) [Example 228, 1-(6′-((2-(1-(Cyclopropylsulfonyl)-1H-pyrazol-4-yl)pyrimidin-4-yl)amino)-4′-(((1S,3S)-3-(hydroxymethyl)cyclohexyl)amino)-[2,3′-bipyridin]-5-yl)-2,2,2-trifluoroethan-1-ol], the IC50 is 1.9 nM in assay [1] (setting [6]); 2.9 nM in assay [1] (setting [7]); 0.5 nM in assay [2] (setting [8]); 1 nM in assay [2] (setting [9]); 5.6 nM in assay [3] (setting [10]); 14.3 nM in assay [3] (IC50 del19/C797S, 100 μM ATP). Moreover, the IC50 was 12.2 nM in assay [4] (setting [11]); 64.9 nM in assay [4] (IC50 L858R/C797S, 100 μM ATP); 19.3 nM in assay [5] (setting [12]); over 10000 nM in assay [5] (IC50 WT, 100 μM ATP).
As for `C[C@]1(O)CC[C@@H](Nc2cc(Nc3ccnc(-c4cnn(S(=O)(=O)C5CC5)c4)n3)ncc2-c2cc(NC3CC(F)(F)C3)ccn2)CC1` [Example 280, (1s,4s)-4-((6′-((2-(1-(Cyclopropylsulfonyl)-1H-pyrazol-4-yl)pyrimidin-4-yl)amino)-4-((3,3-difluorocyclobutyl)amino)-[2,3′-bipyridin]-4′-yl)amino)-1-methylcyclohexan-1-ol], the IC50 was 1 nM in assay [1] (setting [7]); 0.5 nM in assay [2] (setting [9]); 2.7 nM in assay [3] (IC50 del19/C797S, 100 μM ATP); 20.3 nM in assay [4] (IC50 L858R/C797S, 100 μM ATP); over 10000 nM in assay [5] (IC50 WT, 100 μM ATP).
In the case of `COC(c1ccc(-c2cnc(Nc3ccnc(-c4cnn(S(=O)(=O)C5CC5)c4)n3)cc2NC2CCC(CN(C)C)CC2)nc1)C(F)(F)F` (stereo not drawn) [Example 262, N^6′-(2-(1-(Cyclopropylsulfonyl)-1H-pyrazol-4-yl)pyrimidin-4-yl)-N^4′-((1s,4s)-4-((dimethylamino)methyl)cyclohexyl)-5-(2,2,2-trifluoro-1-methoxyethyl)-[2,3′-bipyridine]-4′,6′-diamine], the IC50 in assay [1] (setting [6]) stood at 1.9 nM; in assay [2] (setting [8]), 0.5 nM; in assay [3] (setting [10]), 1.9 nM; in assay [4] (setting [11]) it was 0.9 nM; in assay [5] (setting [12]), 2 nM.
With `O=S(=O)(C1CC1)n1cc(-c2nccc(Nc3cc(NCC4(CO)COC4)c(-c4cccc(F)n4)cn3)n2)cn1` [Example 161, (3-(((6′-((2-(1-(Cyclopropylsulfonyl)-1H-pyrazol-4-yl)pyrimidin-4-yl)amino)-6-fluoro-[2,3′-bipyridin]-4′-yl)amino)methyl)oxetan-3-yl)methanol], the IC50 is 0.1 nM in assay [1] (setting [6]); 0.1 nM in assay [1] (setting [7]); 0.1 nM in assay [2] (setting [8]); 0.5 nM in assay [2] (setting [9]); 0.9 nM in assay [3] (setting [10]); 1.2 nM in assay [3] (IC50 del19/C797S, 100 μM ATP). Also, the IC50 in assay [4] (setting [11]) is 1.9 nM; in assay [4] (IC50 L858R/C797S, 100 μM ATP), 12.4 nM; in assay [5] (setting [12]), 11.6 nM; in assay [5] (IC50 WT, 100 μM ATP), over 10000 nM.
